# System: Delta strain of novel coronavirus
# Type: in vivo, K18-hACE2 transgenic mice
smiles,measurement,setting,value
N#C[C@@]1(c2ccc3c(N)ncnn23)O[C@H](COC(=O)C2CCCCC2)[C@@H](O)[C@H]1O [ATV014],viral load in the lungs (antiviral effect),"[…], ATV014 100 mg/kg, Compound 1 150 mg/kg, once daily, intragastric, versus vehicle control",significant antiviral effects
same,anti-novel coronavirus effects in the mouse model,"conclusion, ATV014 100 mg/kg, Compound 1 150 mg/kg",significant anti-novel coronavirus effects
same,reduction of viral load,"mouse, in vivo",could reduce the viral load to varying degrees

# Reference: EP4623909A1, “PHARMACEUTICAL COMPOSITION FOR TREATING OR RELIEVING COVID-19 AND FORMULATION COMPRISING SAME” (priority 2022, dated 2024)
